Publication PMC7920489 (Pharmaceuticals, 2021)
Read-outs that look alike come from different tables or passages of the source.

How the values were obtained:
[1] = nude, mouse, in vivo, ip, 50 mg/kg
in vivo = details: nude, mouse, ip, 50 mg/kg

COc1cccc(-c2cc(=O)c3ccccc3o2)c1NC(=O)C(C)(C)c1cc(C(=O)Nc2ccc(N(CCCl)CCCl)cc2)ccc1N [AL530]
tmax [1]: 2.5 h
tmax (in vivo): 2 h
